From ChEMBL document CHEMBL1201862, “PubChem BioAssay data set” (2004)
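All cell lines were grown in 96-well plates and treated with compound for 48 hours. GI50 marks 50% less growth.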 Active and inactive are the calls of the source. Rule as the data show it: active = GI50 up to about 1.1 µM and inactive = higher.

Experiments:
Test in all cases: growth of human tumour cells (NCI), 48 h
SK-OV-3 = test system: SK-OV-3
ACHN = test system: ACHN
A498 = test system: A498
OVCAR-5 = test system: OVCAR-5
HCT-116 = test system: HCT-116
MOLT-4 = test system: MOLT-4
TK-10 = test system: TK-10
HCC 2998 = test system: HCC 2998
SF-268 = test system: SF-268
UACC-257 = test system: UACC-257
NCI-H460 = test system: NCI-H460
UACC-62 = test system: UACC-62
NCI-H226 = test system: NCI-H226
SF-539 = test system: SF-539
CAKI-1 = test system: CAKI-1
OVCAR-4 = test system: OVCAR-4
SR = test system: SR

Compound | GI50 (SK-OV-3) | GI50 (ACHN) | GI50 (A498) | GI50 (OVCAR-5) | GI50 (HCT-116) | GI50 (MOLT-4) | GI50 (TK-10) | GI50 (HCC 2998) | GI50 (SF-268) | GI50 (UACC-257) | GI50 (NCI-H460) | GI50 (UACC-62) | GI50 (NCI-H226) | GI50 (SF-539) | GI50 (CAKI-1) | GI50 (OVCAR-4) | GI50 (SR)
Clc1ccc2c(c1)C1C(CO2)C(c2ccccc2)=NN1c1ccccc1 (stereo unspecified) | > 100 µM (inactive) | 35.2 µM (inactive) | > 100 µM (inactive) | > 100 µM (inactive) | 16.1 µM (inactive) | 22 µM (inactive) | 82.8 µM (inactive) | 43.8 µM (inactive) | 42.5 µM (inactive) | 49.7 µM (inactive) | 36.2 µM (inactive) |  |  |  |  |  | 
C=CCCC(O)c1cc(C)c(O)c(C)c1 (stereo unspecified) | > 100 µM (inactive) | > 100 µM (inactive) | > 100 µM (inactive) | > 100 µM (inactive) |  | > 100 µM (inactive) | > 100 µM (inactive) | > 100 µM (inactive) | > 100 µM (inactive) | > 100 µM (inactive) | > 100 µM (inactive) | > 100 µM (inactive) | > 100 µM (inactive) | > 100 µM (inactive) |  |  | 
CCCCCCCCCCCCCCCC(=O)OCC1OC(n2cc(F)c(=O)[nH]c2=O)C(NC(=O)OCc2ccccc2)C(O)C1O (stereo unspecified) | 24.1 µM (inactive) | 34.1 µM (inactive) | 18.8 µM (inactive) | 19.1 µM (inactive) | 16.6 µM (inactive) | 18.2 µM (inactive) | 19.6 µM (inactive) | 16.3 µM (inactive) | 23.4 µM (inactive) |  | 19.2 µM (inactive) | 17.1 µM (inactive) |  | 16.4 µM (inactive) | 16.3 µM (inactive) | 20 µM (inactive) | 
O=C1C2Cc3ccccc3CN2C(=O)N1CCN1CCCC1 (stereo unspecified) |  | > 100 µM (inactive) | > 100 µM (inactive) | > 100 µM (inactive) |  | > 100 µM (inactive) | > 100 µM (inactive) | > 100 µM (inactive) | > 100 µM (inactive) |  | > 100 µM (inactive) | > 100 µM (inactive) | > 100 µM (inactive) | > 100 µM (inactive) | 64.1 µM (inactive) | > 100 µM (inactive) | 
C=C1C2C[C@@H]3OC4CC5O[C@]6(CC5OC4C(C)C3OC(=O)CC3CC[C@@H]4OC5C7OC8C[C@](CCC9CC(=C)[C@H](CCC(C[C@H]1C)O2)O9)(OC7C4O3)O[C@@H]85)C[C@@H]1O[C@@]2(CC(C)[C@@H]3OC(CC(=O)CCO)C(O)C[C@@H]3O2)CC(C)[C@@H]1O6 (stereo partly specified) | < 0.001 µM (active) | < 0.001 µM (active) |  | < 0.001 µM (active) | < 0.001 µM (active) | < 0.001 µM (active) |  | < 0.001 µM (active) | < 0.001 µM (active) | < 0.001 µM (active) | < 0.001 µM (active) | < 0.001 µM (active) | < 0.001 µM (active) | < 0.001 µM (active) | < 0.001 µM (active) | < 0.001 µM (active) | < 0.001 µM (active)
O=C(CCC(=O)Nc1ccc(Cl)c(Cl)c1)CC(=O)c1ccc(F)cc1 | > 100 µM (inactive) | > 100 µM (inactive) |  | > 100 µM (inactive) | > 100 µM (inactive) | > 100 µM (inactive) |  | > 100 µM (inactive) | > 100 µM (inactive) | > 100 µM (inactive) | > 100 µM (inactive) | 89.3 µM (inactive) | > 100 µM (inactive) | > 100 µM (inactive) | > 100 µM (inactive) | > 100 µM (inactive) | > 100 µM (inactive)
O=C1CCC(O)=C1O | > 100 µM (inactive) | > 100 µM (inactive) | > 100 µM (inactive) | > 100 µM (inactive) | > 100 µM (inactive) | > 100 µM (inactive) | > 100 µM (inactive) | > 100 µM (inactive) | > 100 µM (inactive) |  | > 100 µM (inactive) | > 100 µM (inactive) | > 100 µM (inactive) | > 100 µM (inactive) | > 100 µM (inactive) | > 100 µM (inactive) | 
